Read-outs that look alike come from different tables or passages of the source.
How the values were obtained:
[1] = target: Nav1.6 (Homo sapiens, UniProt Q9UQD0); test: % block of Nav1.6 at 100 μM and IC50 (NaV1.6); type: cell-based
Method in brief: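 Nav1.6 block recorded as percent inhibition at 100 μM compound; IC50 also reported.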

[2] = target: NaV1.6 sodium channels (Homo sapiens, UniProt Q9UQD0); test: State-dependent inhibition: steady state inactivation, use-dependent block; type: cell-based
Sequence of NaV1.6 sodium channels (Q9UQD0 whole entry): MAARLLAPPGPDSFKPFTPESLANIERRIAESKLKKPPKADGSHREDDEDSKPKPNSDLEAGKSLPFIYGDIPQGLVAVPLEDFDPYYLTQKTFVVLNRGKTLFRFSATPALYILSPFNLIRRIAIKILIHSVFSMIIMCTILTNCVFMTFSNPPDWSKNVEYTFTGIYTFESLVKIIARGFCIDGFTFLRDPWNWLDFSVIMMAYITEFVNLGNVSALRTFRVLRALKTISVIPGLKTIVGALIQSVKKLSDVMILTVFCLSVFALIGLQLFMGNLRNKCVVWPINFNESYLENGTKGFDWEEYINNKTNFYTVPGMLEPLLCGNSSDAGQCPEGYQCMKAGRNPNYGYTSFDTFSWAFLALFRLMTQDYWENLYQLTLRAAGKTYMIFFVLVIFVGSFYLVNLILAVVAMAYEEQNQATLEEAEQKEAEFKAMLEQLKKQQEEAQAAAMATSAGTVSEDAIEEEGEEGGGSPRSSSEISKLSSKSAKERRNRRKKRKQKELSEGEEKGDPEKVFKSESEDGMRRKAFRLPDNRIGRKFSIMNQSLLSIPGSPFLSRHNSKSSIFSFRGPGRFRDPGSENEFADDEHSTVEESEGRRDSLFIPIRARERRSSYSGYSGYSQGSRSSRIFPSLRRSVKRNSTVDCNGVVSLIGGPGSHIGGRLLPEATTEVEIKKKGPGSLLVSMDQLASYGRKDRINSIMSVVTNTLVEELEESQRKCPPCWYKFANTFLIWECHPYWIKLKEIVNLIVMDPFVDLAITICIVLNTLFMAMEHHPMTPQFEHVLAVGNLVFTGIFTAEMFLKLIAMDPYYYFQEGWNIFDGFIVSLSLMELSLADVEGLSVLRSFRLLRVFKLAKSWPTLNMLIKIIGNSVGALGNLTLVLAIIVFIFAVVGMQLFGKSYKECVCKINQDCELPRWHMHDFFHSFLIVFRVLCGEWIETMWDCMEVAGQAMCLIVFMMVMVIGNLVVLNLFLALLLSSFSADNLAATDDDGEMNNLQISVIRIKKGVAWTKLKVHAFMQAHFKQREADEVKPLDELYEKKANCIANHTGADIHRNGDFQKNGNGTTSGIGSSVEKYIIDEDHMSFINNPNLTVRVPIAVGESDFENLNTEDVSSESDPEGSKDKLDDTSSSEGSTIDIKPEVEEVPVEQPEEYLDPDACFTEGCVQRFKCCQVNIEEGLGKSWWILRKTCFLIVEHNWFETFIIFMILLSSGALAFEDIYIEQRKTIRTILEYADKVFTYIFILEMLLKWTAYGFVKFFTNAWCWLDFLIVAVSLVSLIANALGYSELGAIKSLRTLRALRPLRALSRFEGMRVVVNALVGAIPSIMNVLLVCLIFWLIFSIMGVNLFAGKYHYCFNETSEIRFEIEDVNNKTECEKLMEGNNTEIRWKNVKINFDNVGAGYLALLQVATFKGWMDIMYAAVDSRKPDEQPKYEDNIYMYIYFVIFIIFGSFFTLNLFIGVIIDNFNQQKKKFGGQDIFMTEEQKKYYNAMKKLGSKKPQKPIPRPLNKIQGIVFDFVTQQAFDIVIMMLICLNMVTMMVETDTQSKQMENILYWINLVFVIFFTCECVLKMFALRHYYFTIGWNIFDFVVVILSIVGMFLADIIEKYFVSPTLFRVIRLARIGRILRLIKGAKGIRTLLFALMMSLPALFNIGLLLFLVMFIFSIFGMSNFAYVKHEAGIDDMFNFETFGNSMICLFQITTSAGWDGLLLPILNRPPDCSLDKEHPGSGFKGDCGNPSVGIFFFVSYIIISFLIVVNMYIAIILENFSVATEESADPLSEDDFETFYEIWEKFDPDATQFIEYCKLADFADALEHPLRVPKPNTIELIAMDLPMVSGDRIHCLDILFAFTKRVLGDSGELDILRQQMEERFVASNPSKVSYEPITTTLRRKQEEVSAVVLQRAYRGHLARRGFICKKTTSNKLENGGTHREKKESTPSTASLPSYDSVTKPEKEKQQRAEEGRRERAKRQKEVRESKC
Description: Evaluation of Compounds as State-Dependent Inhibitors
Use dependent block is an important characteristic for AED activity since it allows increased inhibition of sodium channels during increased neuronal activity as is observed during seizures.

[3] = system: maximal electroshock (MES) seizures; test: MES (maximal electroshock) test, mice; type: in vivo; conditions: for MES N/F (animals active over number tested): 100 mg/kg
Description: Evaluation of Compounds in MES Models of Seizures. […] These seizures are highly reproducible and are electrophysiologically consistent with human seizures. […] Abolition of the hindleg tonic extensor component of the seizure was used as the endpoint.

[4] = system: maximal electroshock (MES) seizures; test: MES (maximal electroshock) test, rats; type: in vivo; conditions: for MES N/F (animals active over number tested): 30 mg/kg
Description: Evaluation of Compounds in MES Models of Seizures. The MES is a model for generalized tonic-clonic seizures and provides an indication of a compound's ability to prevent seizure spread when all neuronal circuits in the brain are maximally active. These seizures are highly reproducible and are electrophysiologically consistent with human seizures. […] Abolition of the hindleg tonic extensor component of the seizure was used as the endpoint.

[5] = system: Metrazol-induced clonic seizures; test: scM (subcutaneous Metrazol) test, mice; type: in vivo
Procedure: (§1) Evaluation of Compounds in scM Models of Seizures. Subcutaneous injection of the convulsant Metrazol produces clonic seizures in laboratory animals. […] Animals may be pretreated with various doses of the test compound given by ip injection. At a previously determined TPE (time to peak) of the test compound, the dose of Metrazol which will induce convulsions in 97% of animals (CD97:85 mg/kg mice) may be injected into a loose fold of skin in the midline of the neck. The animals may be placed in isolation cages to minimize stress and observed for the next 30 min for the presence or absence of a seizure. An episode of clonic spasms, approximately 3-5 seconds, of the fore and/or hindlimbs, jaws, or vibrissae may be taken as the endpoint. […] The scM test represents acute animal seizures.

[6] = system: Metrazol-induced clonic seizures; test: scM (subcutaneous Metrazol) test, rats; type: in vivo
Procedure: as §1

[7] = system: 6 Hz psychomotor seizures; test: 6 Hz psychomotor seizure test, mice; type: in vivo; conditions: for 6 Hz N/F (animals active over number tested): 100 mg/kg; for ED50: Mus musculus
Procedure: Evaluation of Compounds in 6 Hz Pyschomotor Seizure Test
Compounds were tested using a 6 Hz psychomotor seizure test. […] For example, both the MES and scM models are insensitive to levetiracetam, a compound considered potentially useful in the management of refractory seizures. […] Thus, the 6 Hz test can serve as a therapy resistant screening paradigm of acute seizure activity.

[8] = system: corneal kindled mice seizures; test: Corneal kindled mice model; type: in vivo; conditions: for Avg. Score / N/F (animals active over number tested): TPE 0.5 hours
Procedure: Evaluation of Compounds in Corneal Kindled Mice Model.
Corneal kindled mice are kindled electrically via 3 second stimulation at 8 mA, 60 Hz through corneal electrodes to produce 10 consecutive stage […] seizures according to the Racine scale. Animals are defined as kindled once they progress to a reproducible stage 5 seizure. 72 hours after the mice have been kindled the test substance is administered and, according to a previously determined TPE (time to peak), the animals are electrically stimulated. The animals are considered protected when displaying a stage 3, or lower, seizure.

[9] = Behavioral toxicity (TOX, TD50), rats; type: in vivo; conditions: rat, in vivo, IP, Table 15, read-out: TOX TD50
[10] = system: rats; test: Behavioral toxicity (TOX, TD50), rats; type: in vivo; conditions: IP, 30 mg/kg
[11] = system: mice; conditions: mouse, in vivo, ip, 100 mg/kg
[12] = in vivo; conditions: mouse, ip

Sequence of Nav1.6 (Q9UQD0 whole entry): as above

Clc1ccc2nc(-c3ccccc3)[nH]c2c1 [MV1066, 6-chloro-2-phenyl-1H-1,3-benzodiazole]
inhibition at 100 µM ([1]; 100 μM compound): 95%
IC50 ([1]; NaV1.6, Table 2, MV1060-MV1091, unit inferred, read-out: IC50): 34.6 µM
effect on current amplitude and activation gating ([2]; 100 μM, 1 second pre-pulse): inhibits macroscopic current amplitude but has no effect on activation gating
use-dependent block ([2]; 20 Hz): profound use-dependent block
affinity by holding potential (dose response) ([2]; cells held at −100 mV or −60 mV, stepped to +10 mV): greater affinity for cells held at −60 mV
ED50 ([3]; Mouse, time 0.5 hrs, read-out: ED50 from MES test): 44.2 mg/kg
ED50 ([3]; Mus musculus, mice, IP, Table 14, read-out: MES ED50): 44.2 mg/kg
MES N/F (animals active over number tested) ([3]; mice, IP, 0.25 h): 4/4
MES N/F (animals active over number tested) ([3]; mice, IP, 0.5 h): 4/4
MES N/F (animals active over number tested) ([3]; mice, IP, 1.0 h): 4/4
MES N/F (animals active over number tested) ([3]; mice, IP, 2.0 h): 4/4
MES N/F (animals active over number tested) ([3]; mice, IP, 4.0 h): 4/4
ED50 ([4]; Rat, time 0.5 hrs, read-out: ED50 from MES test): 25.1 mg/kg
ED50 ([4]; Rattus norvegicus, rats, IP, Table 15, read-out: MES ED50): 25.1 mg/kg
MES N/F (animals active over number tested) ([4]; rats, IP, 0.25 h): 2/4
MES N/F (animals active over number tested) ([4]; rats, IP, 0.5 h): 4/4
MES N/F (animals active over number tested) ([4]; rats, IP, 1.0 h): 4/4
MES N/F (animals active over number tested) ([4]; rats, IP, 2.0 h): 3/4
MES N/F (animals active over number tested) ([4]; rats, IP, 4.0 h): 4/4
ED50 ([5]; Mus musculus, mice, IP, Table 14, read-out: sCM ED50): 180 mg/kg
ED50 ([5]; sc, Mouse, time 0.5 hrs, read-out: ED50 from scM test): 181 mg/kg
ED50 ([6]; Rattus norvegicus, rats, IP, Table 15, read-out: sCM ED50): 96.9 mg/kg
ED50 ([6]; sc, Rat, time 0.5 hrs, read-out: ED50 from scM test): 97 mg/kg
6 Hz N/F (animals active over number tested) ([7]; IP, 32 mA, 0.25 h): 4/4
6 Hz N/F (animals active over number tested) ([7]; IP, 32 mA, 0.5 h): 4/4
6 Hz N/F (animals active over number tested) ([7]; IP, 32 mA, 1.0 h): 3/4
6 Hz N/F (animals active over number tested) ([7]; IP, 32 mA, 2.0 h): 2/4
6 Hz N/F (animals active over number tested) ([7]; IP, 32 mA, 4.0 h): 0/4
6 Hz N/F (animals active over number tested) ([7]; IP, 44 mA, 0.25 h): 2/4
6 Hz N/F (animals active over number tested) ([7]; IP, 44 mA, 0.5 h): 2/4
6 Hz N/F (animals active over number tested) ([7]; IP, 44 mA, 1.0 h): 2/4
6 Hz N/F (animals active over number tested) ([7]; IP, 44 mA, 2.0 h): 0/4
6 Hz N/F (animals active over number tested) ([7]; IP, 44 mA, 4.0 h): 0/4
ED50 ([7]; 32 mA, read-out: ED50 (6 Hz test)): 67.1 mg/kg
ED50 ([7]; IP, 32 mA, Table 14, read-out: 6 Hz (32 mA) ED50): 67.1 mg/kg
ED50 ([7]; IP, (14 mA) [sic], Table 14, read-out: 6 Hz (14 mA) ED50): 72.4 mg/kg
Avg. Score ([8]; 35 mg/kg): 4.75
N/F (animals active over number tested) ([8]; 35 mg/kg): 1/8
Avg. Score ([8]; 72 mg/kg): 3.125
N/F (animals active over number tested) ([8]; 72 mg/kg): 5/8
Avg. Score ([8]; 90 mg/kg): 2.75
N/F (animals active over number tested) ([8]; 90 mg/kg): 5/8
Avg. Score ([8]; 120 mg/kg): 0.375
N/F (animals active over number tested) ([8]; 120 mg/kg): 8/8
ED50 ([8]; Mus musculus): 64.1 mg/kg
TD50 [9]: > 500 mg/kg
TOX N/F (animals toxic over number tested) ([10]; 0.25 h): 0/4
TOX N/F (animals toxic over number tested) ([10]; 0.5 h): 0/4
TOX N/F (animals toxic over number tested) ([10]; 1.0 h): 0/4
TOX N/F (animals toxic over number tested) ([10]; 2.0 h): 0/4
TOX N/F (animals toxic over number tested) ([10]; 4.0 h): 0/4
TOX N/F (animals toxic over number tested) ([11]; 0.5 h): 0/4
TOX N/F (animals toxic over number tested) ([11]; 1 h): 0/4
TOX N/F (animals toxic over number tested) ([11]; 2 h): 0/4
TOX N/F (animals toxic over number tested) ([11]; 4 h): 0/4
TD50 [12]: 383 mg/kg
